These results are taken from US4921847A, “Trihalo(amine)gold(III) anti-tumor complexes” (Engelhard Corporation, priority 1989, dated 1990).

Values joined by “and” are separate entries in the source; they are usually repeats but may differ in a detail not shown here. Identical values can stand only once.

In one data set the test system is S180 ascites. The experiment in a line: Anti-tumor evaluation against S180 ascites in mice (% increase in life span, survivors). As to conditions: S 180 ascites; for Survivors: day of evaluation. It counts as in vivo, female CFW Swiss mice. On the procedure: The above prepared compounds were evaluated against S180 ascites in female CFW Swiss mice. The mice were weighed (average weight: 20 g), placed into cages (six mice to a cage) and on day zero the mice were inoculated with 0.2 ml of a freshly prepared saline suspension (0.15 M NaCl) containing 1×10^7 tumor cells/ml or a total of 2×10^6 cells. This inoculum was freshly prepared using "transfer" mice which had been injected with tumor cells the previous week; it was obtained via the following steps: (1) the removal of cells from the peritoneal cavity of the sacrificed transfer mouse, (2) alternate centrifugation and washing operations (2-3 times with cold saline) to remove blood and other components, and (3) dilution of the volume of the packed cell with saline (1:3). A final centrifugation was carried out at 1000 RPM over a two minute period. A cell count was made on a 2,000-fold dilution of this 1:3 suspension by means of a Coulter Counter. A final dilution to 1×10^7 cells/ml was made based on the average count.
On day 1, solutions of the test compounds were prepared and each mouse in a set of six were injected with the same test compound at the same dosage. The doses were based on the average weight of the animals (cage weight). Also, beginning on day 1 two controls were employed containing six mice per control:
(1) Normal Control: This consisted solely of the carrier or diluent used in combination with the test compound; and
(2) Positive Control: This consisted solely of the known anti-tumor agent cis-[Pt(NH3)2 Cl2 ] (Cisplatin) in saline (8 mg/kg) to test the response of the biological system.
The effectiveness of a test compound was measured in terms of the % increase in life span (%ILS) of the test mice relative to the Normal Control (Calculated from the day of tumor inoculation, i.e., day zero). To standardize the test data and permit intercomparisons, the day of evaluation was arbitrarily taken as that day corresponding to twice the mean life span (or average day of death) of the control. This established a practical upper limit of 100% on the %ILS attainable. For calculation purposes the survivors on the day of evaluation were considered to have died on that day. The %ILS was calculated as follows: [formula] ILS values in excess of 50% were interpreted as being indicative of anti-tumor activity, whereas, values in excess of 75% indicated excellent activity.
The products of Examples 1, 4, 10 and 11 were administered in a freshly prepared 1% sodium bicarbonate solution; the remaining test compounds were administered as slurries in 0.5% "Klucel" (hydroxypropylcellulose).

The next data set can be described thus: Solubility. The class given is physicochemical.
Data set [1] deals with Sarcoma 180 tumors. The experiment in a line: Therapeutic index (LD50/ED90), implanted Sarcoma 180 tumors. It counts as in vivo, Swiss white mice. On the set-up: ED90: unit not given here. As to conditions: for Therapeutic Index: LD50/ED90; for Maximum % ILS (Dosage): S 180 ascites; for ED90: dose giving 50% increase in life span for 90% of the animals, determined graphically.

Data set [2] relates to Sarcoma 180 tumors. The following applies: comparison value; cited from earlier work.

`O=C(O)c1ccc[n+]([Au-]([Cl])([Cl])[Cl])c1` [Example 1, Trichloro(Nicotinic Acid)Gold(III)]: the “peak ILS values” in the data set on S180 ascites is given as above 90%. Moreover, the “% ILS” value was -3% with S180 ascites (10 mg/kg); 60% in the data set on S180 ascites (20 mg/kg); 91% in the data set with S180 ascites (40 mg/kg); 98% in the data set with S180 ascites (80 mg/kg); 1% in the data set with S180 ascites (160 mg/kg); -69% in the data set with S180 ascites (320 mg/kg). The Survivors in the data set with S180 ascites (10 mg/kg) is given as 0 of 6; with S180 ascites (20 mg/kg), 3 of 6; in the data set with S180 ascites (40 mg/kg), 3 of 6; in the data set on S180 ascites (80 mg/kg), 4 of 6; in the data set on S180 ascites (160 mg/kg), 0 of 6; in the data set with S180 ascites (320 mg/kg), 0 of 6. For the same compound, the “solubility in 1% sodium bicarbonate solution” value in “Solubility” turned out to be 12.8 mg/mL. For the same compound, the “Therapeutic Index” value in the data set with Sarcoma 180 tumors [1] came out at 5.8. In the data set with Sarcoma 180 tumors [1] (80 mg/kg), the “Maximum % ILS (Dosage)” value is 98%. Besides, the ED90 in the data set with Sarcoma 180 tumors [1] is on record as 31.

For `O=C(O)Cc1ccc[n+]([Au-]([Cl])([Cl])[Cl])c1` [Example 4, trichloro(3-pyridyacetic acid)gold(III)], the “% ILS” value in the data set on S180 ascites (10 mg/kg) is 6%; in the data set with S180 ascites (20 mg/kg), -15%; with S180 ascites (40 mg/kg), 63%; in the data set with S180 ascites (80 mg/kg), 57%; with S180 ascites (160 mg/kg), -41%; with S180 ascites (320 mg/kg), -90%. For the same compound, the Survivors in the data set on S180 ascites (10 mg/kg) is 0 of 6; with S180 ascites (20 mg/kg), 0 of 6; with S180 ascites (40 mg/kg), 1 of 6; with S180 ascites (80 mg/kg), 1 of 6; in the data set on S180 ascites (160 mg/kg), 0 of 6; in the data set with S180 ascites (320 mg/kg), 0 of 6. Moreover, the “Anti-tumor activity (in words)” value with S180 ascites (50% ILS criterion) is “pronounced antitumor effect”. Further, the “solubility in 1% sodium bicarbonate solution” value in “Solubility” was 12.8 mg/mL. In the data set with Sarcoma 180 tumors [1], the “Therapeutic Index” value amounted to 1.8. In the data set with Sarcoma 180 tumors [1] (40 mg/kg), the “Maximum % ILS (Dosage)” value is listed as 63%. Besides, the ED90 in the data set with Sarcoma 180 tumors [1] was 84.

Turning to “cis-[Pt(NH3)2 Cl2 ] [Cisplatin, reference compound]”, the “Positive Control Survivors” value with S180 ascites (Cisplatin in saline, 8 mg/kg, one value per test series, listed as Positive Control) is 0 of 6 and 4 of 6 and 6 of 6 and 1 of 6. In the data set with Sarcoma 180 tumors [2], the “Therapeutic index attributed to commercially available Cisplatin” value was 2.2-2.5.
